Test results reported in ChEMBL document CHEMBL4304811, “Development of a Water-Soluble Indolylmaleimide Derivative IM-93 Showing Dual Inhibition of Ferroptosis and NETosis” (ACS Med Chem Lett, 2019).
Activity calls are given as the source filed them. The rule behind the calls is not given here.

Key:
[1] = biological target: Serine/threonine-protein kinase ICK (Homo sapiens) (UniProt Q9UPZ9); assay: Binding affinity to wild-type human partial length ICK (M1 to P314 residues) expressed in mammalian expression system assessed as residual binding level at 10 uM by Kinomescan method relative to control
[2] = biological target: Mitogen-activated protein kinase 14 (Homo sapiens) (UniProt Q16539); assay: Binding affinity to wild-type human full length p38-alpha (M1 to S360 residues) expressed in bacterial expression system assessed as residual binding level at 10 uM by Kinomescan method relative to control
[3] = test system: Epidermal growth factor receptor (Homo sapiens), P00533 [UNDEFINED MUTATION]; assay: Binding affinity to human partial length EGFR L747-E749del/A750P mutant expressed in bacterial expression system assessed as residual binding level at 10 uM by Kinomescan method relative to control
[4] = biological target: Mitogen-activated protein kinase 12 (Homo sapiens) (UniProt P53778); assay: Binding affinity to wild-type human full length p38-gamma (M1 to L367 residues) expressed in mammalian expression system assessed as residual binding level at 10 uM by Kinomescan method relative to control
[5] = biological target: Inhibitor of nuclear factor kappa-B kinase subunit alpha (Homo sapiens) (UniProt O15111); assay: Binding affinity to wild-type human full length IKK-alpha (M1 to E745 residues) expressed in mammalian expression system assessed as residual binding level at 10 uM by Kinomescan method relative to control
[6] = biological target: Non-receptor tyrosine-protein kinase TNK1 (Homo sapiens) (UniProt Q13470); assay: Binding affinity to wild-type human full length TNK1 (M1 to P661 residues) expressed in bacterial expression system assessed as residual binding level at 10 uM by Kinomescan method relative to control
[7] = biological target: Serine/threonine-protein kinase N2 (Homo sapiens) (UniProt Q16513); assay: Binding affinity to wild-type human partial length PKN2 (E634 to C984 residues) expressed in bacterial expression system assessed as residual binding level at 10 uM by Kinomescan method relative to control
[8] = biological target: Macrophage colony-stimulating factor 1 receptor (Homo sapiens) (UniProt P07333); assay: Binding affinity to wild-type human partial length CSF1R (I564 to S939 residues) expressed in bacterial expression system assessed as residual binding level at 10 uM by Kinomescan method relative to control
[9] = test system: Epidermal growth factor receptor (Homo sapiens), P00533 [UNDEFINED MUTATION]; assay: Binding affinity to human partial length EGFR S752-I759del mutant expressed in bacterial expression system assessed as residual binding level at 10 uM by Kinomescan method relative to control
[10] = Stability of compound in D2O at 0.012 mmol followed by TBHP addition measured after 24 hrs by 1H-NMR spectroscopy; assay type: physicochemical
[11] = test system: Receptor-type tyrosine-protein kinase FLT3 (Homo sapiens), P36888 [K663Q]; assay: Binding affinity to human partial length FLT3 K663Q mutant (V592 to Y969 residues) expressed in bacterial expression system assessed as residual binding level at 10 uM by Kinomescan method relative to control
[12] = biological target: Serine/threonine-protein kinase D3 (Homo sapiens) (UniProt O94806); assay: Binding affinity to wild-type human partial length PRKD3 (S543 to E863 residues) expressed in bacterial expression system assessed as residual binding level at 10 uM by Kinomescan method relative to control
[13] = biological target: Serine/threonine-protein kinase Nek10 (Homo sapiens) (UniProt Q6ZWH5); assay: Binding affinity to wild-type human partial length NEK10 (L488 to R809 residues) expressed in mammalian expression system assessed as residual binding level at 10 uM by Kinomescan method relative to control
[14] = biological target: Serine/threonine-protein kinase 32C (Homo sapiens) (UniProt Q86UX6); assay: Binding affinity to wild-type human partial length YANK3 (M68 to G486 residues) expressed in bacterial expression system assessed as residual binding level at 10 uM by Kinomescan method relative to control
[15] = Stability of compound in D2O at 0.012 mmol followed by H2O2 addition measured after 2 hrs by 1H-NMR spectroscopy; assay type: physicochemical
[16] = biological target: Macrophage-stimulating protein receptor (Homo sapiens) (UniProt Q04912); assay: Binding affinity to wild-type human partial length MST1R (I1057 to L1363 residues) expressed in bacterial expression system assessed as residual binding level at 10 uM by Kinomescan method relative to control
[17] = test system: Mast/stem cell growth factor receptor Kit (Homo sapiens), P10721 [V559D]; assay: Binding affinity to human partial length KIT V559D mutant (Y545 to D952 residues) expressed in bacterial expression system assessed as residual binding level at 10 uM by Kinomescan method relative to control
[18] = biological target: Mitogen-activated protein kinase 9 (Homo sapiens) (UniProt P45984); assay: Binding affinity to wild-type human full length JNK2 (M1 to Q382 residues) expressed in mammalian expression system assessed as residual binding level at 10 uM by Kinomescan method relative to control
[19] = biological target: Calcium/calmodulin-dependent protein kinase type 1G (Homo sapiens) (UniProt Q96NX5); assay: Binding affinity to wild-type human partial length CAMK1G (M1 to A342 residues) expressed in bacterial expression system assessed as residual binding level at 10 uM by Kinomescan method relative to control
[20] = biological target: Wee1-like protein kinase (Homo sapiens) (UniProt P30291); assay: Binding affinity to wild-type human partial length WEE1 (M291 to K575 residues) expressed in bacterial expression system assessed as residual binding level at 10 uM by Kinomescan method relative to control
[21] = biological target: Phosphorylase b kinase gamma catalytic chain, liver/testis isoform (Homo sapiens) (UniProt P15735); assay: Binding affinity to wild-type human partial length PHKG2 (M1 to W300 residues) expressed in bacterial expression system assessed as residual binding level at 10 uM by Kinomescan method relative to control
[22] = biological target: Serine/threonine-protein kinase LATS2 (Homo sapiens) (UniProt Q9NRM7); assay: Binding affinity to wild-type human partial length LATS2 (Q641 to V1088 residues) expressed in mammalian expression system assessed as residual binding level at 10 uM by Kinomescan method relative to control
[23] = biological target: Cyclin-G-associated kinase (Homo sapiens) (UniProt O14976); assay: Binding affinity to wild-type human partial length GAK (G13 to Y338 residues) expressed in bacterial expression system assessed as residual binding level at 10 uM by Kinomescan method relative to control
[24] = biological target: Cyclin-dependent kinase-like 3 (Homo sapiens) (UniProt Q8IVW4); assay: Binding affinity to wild-type human partial length CDKL3 (M1 to D327 residues) expressed in bacterial expression system assessed as residual binding level at 10 uM by Kinomescan method relative to control
THP-1 = assay: Inhibition of Pseudomonas aeruginosa-induced pyroptosis in human THP1 cells at 10 uM preincubated for 1 hr followed by bacterial infection and measured after 2 hrs by INT dye based LDH assay; assay type: functional, cell-based
[25] = test system: Proto-oncogene tyrosine-protein kinase receptor Ret (Homo sapiens), P07949 [V804M]; assay: Binding affinity to human partial length RET V804M mutant (E713 to D1014 residues) expressed in bacterial expression system assessed as residual binding level at 10 uM by Kinomescan method relative to control

Sequence of Epidermal growth factor receptor (Homo sapiens), P00533 [UNDEFINED MUTATION] (P00533 whole entry, looked up, stated change not applied, the tested form may be a part): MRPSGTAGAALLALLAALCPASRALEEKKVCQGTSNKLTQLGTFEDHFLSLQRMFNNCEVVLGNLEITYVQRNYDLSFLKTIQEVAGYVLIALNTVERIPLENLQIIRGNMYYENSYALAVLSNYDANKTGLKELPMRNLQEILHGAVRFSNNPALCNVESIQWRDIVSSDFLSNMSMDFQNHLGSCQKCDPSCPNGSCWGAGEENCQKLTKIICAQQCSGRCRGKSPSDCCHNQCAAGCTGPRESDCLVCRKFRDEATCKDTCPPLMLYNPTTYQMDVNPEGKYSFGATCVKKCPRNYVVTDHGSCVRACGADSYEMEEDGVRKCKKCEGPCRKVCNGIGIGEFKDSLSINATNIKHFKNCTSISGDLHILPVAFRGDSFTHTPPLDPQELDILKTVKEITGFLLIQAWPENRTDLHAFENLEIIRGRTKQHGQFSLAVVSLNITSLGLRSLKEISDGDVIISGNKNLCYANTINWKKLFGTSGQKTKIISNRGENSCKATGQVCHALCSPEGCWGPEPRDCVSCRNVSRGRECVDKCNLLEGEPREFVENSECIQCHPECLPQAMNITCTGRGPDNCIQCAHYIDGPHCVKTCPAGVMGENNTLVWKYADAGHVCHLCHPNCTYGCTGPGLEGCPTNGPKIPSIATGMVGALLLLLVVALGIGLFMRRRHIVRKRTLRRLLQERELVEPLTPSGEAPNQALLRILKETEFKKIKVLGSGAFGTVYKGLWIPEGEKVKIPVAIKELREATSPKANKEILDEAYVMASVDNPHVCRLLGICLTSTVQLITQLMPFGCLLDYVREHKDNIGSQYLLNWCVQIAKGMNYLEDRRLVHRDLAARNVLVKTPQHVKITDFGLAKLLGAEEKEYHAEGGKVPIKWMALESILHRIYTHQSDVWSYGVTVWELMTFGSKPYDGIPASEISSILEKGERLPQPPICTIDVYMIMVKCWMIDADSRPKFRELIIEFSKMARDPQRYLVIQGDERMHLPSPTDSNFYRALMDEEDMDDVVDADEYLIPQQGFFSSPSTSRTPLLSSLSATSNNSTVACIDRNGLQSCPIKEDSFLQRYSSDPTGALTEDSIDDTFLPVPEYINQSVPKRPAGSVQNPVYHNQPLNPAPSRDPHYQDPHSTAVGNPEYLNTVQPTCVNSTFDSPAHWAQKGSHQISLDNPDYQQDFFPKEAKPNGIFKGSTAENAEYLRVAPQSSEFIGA
Sequence of Macrophage colony-stimulating factor 1 receptor (Homo sapiens) (P07333 whole entry, the tested form may be a part): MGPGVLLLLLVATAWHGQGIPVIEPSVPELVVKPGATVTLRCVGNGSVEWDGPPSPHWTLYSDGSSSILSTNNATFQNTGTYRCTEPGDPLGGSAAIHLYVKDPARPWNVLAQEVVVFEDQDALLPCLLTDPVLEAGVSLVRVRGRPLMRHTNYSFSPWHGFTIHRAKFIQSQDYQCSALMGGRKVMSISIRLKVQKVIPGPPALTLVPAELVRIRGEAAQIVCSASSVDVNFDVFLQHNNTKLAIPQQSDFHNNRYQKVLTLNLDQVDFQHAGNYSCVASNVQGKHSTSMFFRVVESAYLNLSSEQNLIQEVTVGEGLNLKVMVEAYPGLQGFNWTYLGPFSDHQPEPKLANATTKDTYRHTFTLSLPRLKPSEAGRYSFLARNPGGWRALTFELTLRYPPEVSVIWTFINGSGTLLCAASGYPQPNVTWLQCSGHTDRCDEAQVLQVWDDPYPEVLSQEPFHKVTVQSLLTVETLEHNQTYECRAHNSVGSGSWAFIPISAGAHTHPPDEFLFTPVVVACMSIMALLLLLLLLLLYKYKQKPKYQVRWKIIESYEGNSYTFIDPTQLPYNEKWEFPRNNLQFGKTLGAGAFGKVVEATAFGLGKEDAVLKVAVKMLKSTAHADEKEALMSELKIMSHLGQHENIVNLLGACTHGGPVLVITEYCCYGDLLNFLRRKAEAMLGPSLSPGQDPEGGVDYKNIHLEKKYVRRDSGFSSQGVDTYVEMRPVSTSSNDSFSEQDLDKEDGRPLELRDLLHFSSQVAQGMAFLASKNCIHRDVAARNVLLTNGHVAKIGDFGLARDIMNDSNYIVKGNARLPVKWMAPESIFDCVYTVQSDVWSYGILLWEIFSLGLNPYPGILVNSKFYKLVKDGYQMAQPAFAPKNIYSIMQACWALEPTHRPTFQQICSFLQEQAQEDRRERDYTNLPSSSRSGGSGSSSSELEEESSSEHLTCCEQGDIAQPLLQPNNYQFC
Sequence of Mitogen-activated protein kinase 14 (Homo sapiens) (Q16539 whole entry, the tested form may be a part): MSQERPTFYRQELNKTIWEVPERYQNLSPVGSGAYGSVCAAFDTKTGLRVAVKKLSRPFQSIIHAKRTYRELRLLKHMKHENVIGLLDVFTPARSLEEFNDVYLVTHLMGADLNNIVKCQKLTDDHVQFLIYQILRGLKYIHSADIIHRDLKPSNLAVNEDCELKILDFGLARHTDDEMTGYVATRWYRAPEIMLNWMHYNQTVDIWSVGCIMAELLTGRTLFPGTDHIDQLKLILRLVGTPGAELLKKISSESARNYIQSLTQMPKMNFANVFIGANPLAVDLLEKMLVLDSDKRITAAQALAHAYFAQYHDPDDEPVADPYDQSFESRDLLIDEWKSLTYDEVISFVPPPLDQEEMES
Sequence of Wee1-like protein kinase (Homo sapiens) (P30291 whole entry, looked up, the tested form may be a part, canonical isoform): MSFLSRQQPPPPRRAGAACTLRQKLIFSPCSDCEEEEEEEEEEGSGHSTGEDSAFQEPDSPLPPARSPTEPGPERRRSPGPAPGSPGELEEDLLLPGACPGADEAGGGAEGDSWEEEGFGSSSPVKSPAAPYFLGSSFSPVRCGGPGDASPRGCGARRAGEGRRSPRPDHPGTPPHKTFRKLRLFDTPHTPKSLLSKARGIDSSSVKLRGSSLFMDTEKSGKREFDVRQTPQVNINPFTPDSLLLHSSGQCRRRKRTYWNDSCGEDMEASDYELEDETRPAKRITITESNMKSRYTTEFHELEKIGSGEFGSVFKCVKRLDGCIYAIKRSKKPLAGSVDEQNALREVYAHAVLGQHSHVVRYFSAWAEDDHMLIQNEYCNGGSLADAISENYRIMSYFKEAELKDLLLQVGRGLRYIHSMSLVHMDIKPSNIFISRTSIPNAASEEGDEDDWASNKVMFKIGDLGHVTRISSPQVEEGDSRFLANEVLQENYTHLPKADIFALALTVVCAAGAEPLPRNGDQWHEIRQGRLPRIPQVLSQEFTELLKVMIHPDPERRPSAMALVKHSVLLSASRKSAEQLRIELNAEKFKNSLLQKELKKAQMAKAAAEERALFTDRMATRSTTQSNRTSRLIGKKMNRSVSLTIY
Sequence of Serine/threonine-protein kinase LATS2 (Homo sapiens) (Q9NRM7 whole entry, the tested form may be a part): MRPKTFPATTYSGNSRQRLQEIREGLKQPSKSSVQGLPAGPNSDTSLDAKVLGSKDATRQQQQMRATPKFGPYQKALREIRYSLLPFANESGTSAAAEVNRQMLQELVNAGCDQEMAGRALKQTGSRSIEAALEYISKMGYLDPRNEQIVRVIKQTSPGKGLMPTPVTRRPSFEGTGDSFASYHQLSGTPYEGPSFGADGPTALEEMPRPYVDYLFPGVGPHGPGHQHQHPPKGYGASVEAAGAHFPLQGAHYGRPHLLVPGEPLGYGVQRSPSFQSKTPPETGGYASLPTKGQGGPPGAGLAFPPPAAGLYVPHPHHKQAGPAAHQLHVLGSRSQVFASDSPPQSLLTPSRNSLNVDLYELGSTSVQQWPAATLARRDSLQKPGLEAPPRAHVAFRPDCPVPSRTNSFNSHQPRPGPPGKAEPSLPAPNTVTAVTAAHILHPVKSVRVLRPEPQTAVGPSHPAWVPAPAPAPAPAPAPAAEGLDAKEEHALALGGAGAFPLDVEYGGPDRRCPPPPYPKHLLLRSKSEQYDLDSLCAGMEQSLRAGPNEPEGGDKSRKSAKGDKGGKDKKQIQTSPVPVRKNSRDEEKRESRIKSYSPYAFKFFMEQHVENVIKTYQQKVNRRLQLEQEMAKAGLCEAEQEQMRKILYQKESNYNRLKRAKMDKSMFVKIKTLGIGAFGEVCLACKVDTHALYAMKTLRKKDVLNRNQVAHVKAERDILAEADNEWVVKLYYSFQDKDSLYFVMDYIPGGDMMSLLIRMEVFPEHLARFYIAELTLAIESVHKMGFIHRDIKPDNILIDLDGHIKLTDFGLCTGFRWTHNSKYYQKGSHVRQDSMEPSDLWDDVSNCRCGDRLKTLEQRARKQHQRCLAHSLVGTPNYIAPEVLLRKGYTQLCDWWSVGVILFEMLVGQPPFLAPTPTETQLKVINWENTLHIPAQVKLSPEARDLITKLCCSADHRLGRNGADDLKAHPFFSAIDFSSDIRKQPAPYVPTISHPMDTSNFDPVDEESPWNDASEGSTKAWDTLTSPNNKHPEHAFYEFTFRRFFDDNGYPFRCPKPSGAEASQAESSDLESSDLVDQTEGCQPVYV
Sequence of Inhibitor of nuclear factor kappa-B kinase subunit alpha (Homo sapiens) (O15111 whole entry, the tested form may be a part): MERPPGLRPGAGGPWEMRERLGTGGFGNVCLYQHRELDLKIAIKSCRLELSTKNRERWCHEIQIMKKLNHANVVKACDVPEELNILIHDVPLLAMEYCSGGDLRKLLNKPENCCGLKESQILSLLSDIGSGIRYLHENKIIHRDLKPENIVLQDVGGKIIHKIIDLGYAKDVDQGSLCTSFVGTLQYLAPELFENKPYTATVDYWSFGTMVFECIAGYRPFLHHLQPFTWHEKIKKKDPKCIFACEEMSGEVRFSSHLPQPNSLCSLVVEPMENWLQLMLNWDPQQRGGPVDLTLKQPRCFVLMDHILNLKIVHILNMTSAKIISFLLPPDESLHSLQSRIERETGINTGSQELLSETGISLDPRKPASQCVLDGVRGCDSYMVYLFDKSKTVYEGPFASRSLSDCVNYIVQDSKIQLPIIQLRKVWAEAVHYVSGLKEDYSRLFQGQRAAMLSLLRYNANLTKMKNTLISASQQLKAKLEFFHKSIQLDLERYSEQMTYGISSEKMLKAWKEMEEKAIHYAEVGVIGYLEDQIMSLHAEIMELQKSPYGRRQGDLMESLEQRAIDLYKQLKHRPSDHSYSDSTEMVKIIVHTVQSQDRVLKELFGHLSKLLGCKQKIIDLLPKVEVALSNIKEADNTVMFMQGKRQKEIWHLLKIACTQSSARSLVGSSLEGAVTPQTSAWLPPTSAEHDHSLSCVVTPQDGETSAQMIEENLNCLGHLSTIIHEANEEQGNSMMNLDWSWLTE

## CC(C)N1C(=O)C(NCCCN(C)C)=C(c2cn(C)c3ccccc23)C1=O.Cl
[1]
  Activity: 81%
[2]
  Activity: 100%
[3]
  Activity: 88%
[4]
  Activity: 72%
[5]
  Activity: 81%
[6]
  Activity: 95%
[7]
  Activity: 95%
[8]
  Activity: 97%
[9]
  Activity: 97%
[10]
  Stability: Stable
[11]
  Activity: 97%
[12]
  Activity: 91%
[13]
  Activity: 95%
[14]
  Activity: 98%
[15]
  Stability: Stable
[16]
  Activity: 100%
[17]
  Activity: 96%
[18]
  Activity: 80%
[19]
  Activity: 95%
[20]
  Activity: 100%
[21]
  Activity: 100%
[22]
  Activity: 88%
[23]
  Activity: 94%
[24]
  Activity: 100%
THP-1
  inhibition: inactive
[25]
  Activity: 97%
